Assay [1] deals with T1, bovine serum albumin (BSA) (Bos taurus, UniProt P02769).
T1 construct: BSA, molecular weight of 66 kDa, 583 residues; purchased Sigma Aldrich Chemicals (Taufkirchen, Germany)
Conditions: neat buffer (10 mM Tris-HCl), no salt; cited from earlier work.

Assay [2] concerns the target T1, bovine serum albumin (BSA). Put plainly: Steady-state fluorescence titration of ANS with BSA at ambient pressure (binding isotherms). Conditions: for Kd: 1 bar, 10 mM Tris-HCl pH 7.4. An excerpt: The extent of complex formation between ANS and BSA was followed by means of steady-state fluorescence spectroscopy using a K2 fluorometer from ISS, Inc. (Champaign, IL, USA). The binding isotherms were obtained by recording ANS emission spectra by exciting the solutions at 350 nm and recording the emission intensities in the range 400–550 nm. The width slits of the excitation and emission monochromators were both set to 8 nm. Briefly, a series of solutions with a fixed concentration of ANS at ~5 µM were prepared, and the concentration of BSA was varied between 0 and ~40 µM. Then estimation of the binding constants (Kb) was performed by using a plot of ΔF = F − F0 (where F is the fluorescence intensity of ANS at the maximum in the presence of BSA, and F0 is the intensity of ANS in the absence of BSA) as a function of total BSA concentration and fitting the experimental data according to an equivalent and independent binding sites model or to two classes of non-equivalent and independent binding-site models, as described in detail in Reference.
Once the stoichiometries of the complex in the presence of the salts and at the three different temperatures are known, it is possible to estimate the binding constants, Kb, performing titration experiments by means of steady-state fluorescence spectroscopy. In these experiments, a solution of ANS was titrated with a BSA solution. The ANS is characterized by a very low quantum yield when it is free in solution [21]. Instead, when the aromatic ligand is bound to the protein’s hydrophobic pockets, a strong increase of the fluorescence intensity is observed. Thus, the extent of binding can be readily determined by following the fluorescence increase of ANS. The subsequent data analysis was performed according to the stoichiometries inferred by the Job’s plot experiments.

Assay [3] concerns the target T1, bovine serum albumin (BSA). Put plainly: Job's plot (method of continuous variation) by steady-state fluorescence for binding stoichiometry. The note with it: 1 bar. Here is the method: First, we explored the impact of 250 mM MgCl2, Mg(ClO4)2, and MgSO4 on the ligand binding process at 25 °C and ambient pressure (1 bar). To be able to determine the binding constant, it is of fundamental importance to exactly know the stoichiometry of the complex formed. In this way, a proper binding model can be applied in the data analysis of the measured binding isotherms, providing the most appropriate value of the binding constant, Kb. We applied the method of continuous variation (or Job’s plot) for the estimation of the binding stoichiometry by means of steady-state fluorescence spectroscopy. A series of solutions were prepared such that the total concentration (i.e., [ANS] + [BSA]) is constant, while the mole fractions of the interacting partners were varied. Discontinuities in the plot of fluorescence intensity vs. xANS (where xANS is the mole fraction of ANS) are indicative of the stoichiometry of the complex formed.

The mark [4] stands for this setting: 250 mM Mg(ClO4)2, 25 °C, [ANS]+[BSA] 35 µM.

SMILES strings stand for the structures.

T1 sequence (P02769 25-607): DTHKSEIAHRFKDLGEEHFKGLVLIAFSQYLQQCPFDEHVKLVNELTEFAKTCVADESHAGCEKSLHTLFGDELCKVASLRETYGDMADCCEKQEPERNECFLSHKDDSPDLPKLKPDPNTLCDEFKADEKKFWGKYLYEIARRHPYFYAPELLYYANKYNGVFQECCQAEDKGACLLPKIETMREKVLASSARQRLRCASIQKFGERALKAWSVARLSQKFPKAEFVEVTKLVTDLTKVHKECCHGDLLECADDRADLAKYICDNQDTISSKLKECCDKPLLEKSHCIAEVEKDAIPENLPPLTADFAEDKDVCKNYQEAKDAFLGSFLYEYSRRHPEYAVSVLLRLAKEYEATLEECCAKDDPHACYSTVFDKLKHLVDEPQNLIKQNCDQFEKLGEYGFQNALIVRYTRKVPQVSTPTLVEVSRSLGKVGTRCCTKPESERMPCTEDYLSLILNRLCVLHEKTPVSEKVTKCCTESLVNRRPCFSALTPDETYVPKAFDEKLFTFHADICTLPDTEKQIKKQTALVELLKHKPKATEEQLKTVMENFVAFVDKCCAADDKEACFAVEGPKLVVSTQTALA

Regarding `O=S(=O)(O)c1cccc2cccc(Nc3ccccc3)c12` [ANS, 8-anilinonaphthalene-1-sulfonic acid], the “ANS molecules bound on average to one BSA molecule” value in assay [1] is recorded as “three”. Also, the “Decrease of Kb on decreasing the temperature from 25 to 15 °C” value in assay [2] (250 mM MgCl2, 1 bar) is on record as ~ 90%. Moreover, the Kd was 5260 nM in assay [2] (Binding constant Kb1, 250 mM Mg(ClO4)2, 5 °C); 6670 nM in assay [2] (Binding constant Kb1, 250 mM Mg(ClO4)2, 15 °C); 1690 nM in assay [2] (Binding constant Kb1, 250 mM Mg(ClO4)2, 25 °C); 1000 ± 100 nM in assay [2] (Binding constant Kb1, 250 mM MgCl2, 5 °C); 2780 nM in assay [2] (Binding constant Kb1, 250 mM MgCl2, 15 °C); 204 nM in assay [2] (Binding constant Kb1, 250 mM MgCl2, 25 °C). Besides, the Kd is 1610 nM in assay [2] (Binding constant Kb1, 250 mM MgSO4, 5 °C); 2560 nM in assay [2] (Binding constant Kb1, 250 mM MgSO4, 15 °C); 345 nM in assay [2] (Binding constant Kb1, 250 mM MgSO4, 25 °C); 5260 nM in assay [2] (Binding constant Kb2, 250 mM Mg(ClO4)2, 5 °C); 7690 nM in assay [2] (Binding constant Kb2, 250 mM Mg(ClO4)2, 15 °C); 833 nM in assay [2] (Binding constant Kb2, 250 mM Mg(ClO4)2, 25 °C). Moreover, the “ANS molecules bound to one BSA molecule” value is recorded as “two” in assay [3] (250 mM Mg(ClO4)2, 25 °C) and “three” in assay [3] (250 mM MgSO4, 25 °C). Besides, the “Job's plot first inflection point xANS” value in assay [3] (setting [4]) is recorded as 0.5. For the same compound, the “Job's plot second inflection point xANS” value in assay [3] (setting [4]) is recorded as “≈ 0.65”. Further, the “Job's plot inflection point xANS (mole fraction of ANS)” value was “≈ 0.75” in assay [3] (250 mM MgCl2, 25 °C, [ANS]+[BSA] 35 µM) and “≈ 0.75” in assay [3] (250 mM MgSO4, 25 °C, [ANS]+[BSA] 35 µM).

The record behind these values is publication PMC8301423, “The Effects of Temperature and Pressure on Protein-Ligand Binding in the Presence of Mars-Relevant Salts” (Biology, 2021).
